Results: paper PMC5967629 (Bioorganic & medicinal chemistry, 2018)
One block for each compound: values may come before it.

How the values were obtained:
Parental SK-OV-3 = test: SRB assay in parental SK-OV-3 cells; assay type: cell-based; conditions: Homo sapiens, SK-OV-3, read-out: IC50 ± SD Parental SK-OV-3
MDA-MB-435 cancer cells = test: SRB antiproliferative assay in MDA-MB-435 cells; assay type: cell-based; conditions: for antiproliferative activity (in words): MDA-MB-435 cells, Table 2; for fold less potent than 1 in MDA-MB-435 cells: relative to IC50 of 1
[1] = Metabolite identification of 3 in human liver microsomes; assay type: in vitro ADME; conditions: 3 at 20 μM incubated with human liver microsomes
A-10 cells = assay type: cell-based; conditions: for microtubule depolymerization activity (in words): A-10 cells, Table 2

Compound: COc1ccc(N(C)c2nc(C)nc3c2CCC3)cc1 [Compound 1]
- IC50 (Parental SK-OV-3): 11.3 ± 0.2 nM
- IC50 (MDA-MB-435 cancer cells; Homo sapiens, MDA-MB-435, read-out: IC50 ± SD (MDA-MB-435) Cancer cells): 7 ± 0.7 nM

Compound: Cc1nc2c(c(N(C)c3ccc(O)cc3)n1)CCC2 [Compound 2, N-(4-Hydroxylphenyl)-N,2-dimethyl-6,7-dihydro-5H-cyclopenta[d]pyrimidin-4-amine]
- antiproliferative activity (in words) (MDA-MB-435 cancer cells): low activity

- MS Peak Area in 60 min sample, HPLC area [1]: 2,061,000
Compound: CSc1ccc(N(C)c2nc(C)nc3c2CCC3)cc1 [Compound 3, N-(4-Methiophenyl)-N,2-dimethyl-6,7-dihydro-5H-cyclopenta[d]pyrimidin-4-amine]

- MS Peak Area in 60 min sample, HPLC area [1]: 2,199,500
Compound: Cc1nc2c(c(N(C)c3ccc([S+](C)[O-])cc3)n1)CCC2 (stereo not shown) [Compound 5, N-(4-Methylsulfinylphenyl)-N,2-dimethyl-6,7-dihydro-5H-cyclopenta[d]pyrimidin-4-amine]

- MS Peak Area in 60 min sample, HPLC area [1]: 98,900
Compound: Cc1nc2c(c(N(C)c3ccc(S(C)(=O)=O)cc3)n1)CCC2 [Compound 6, N-(4-Methylsulfonylphenyl)-N,2-dimethyl-6,7-dihydro-5H-cyclopenta[d]pyrimidin-4-amine]
- microtubule depolymerization activity (in words) (A-10 cells): inactive

Compound: CNc1ccc(N(C)c2nc(C)nc3c2CCC3)cc1 [Compound 7, N-(4-Methylaminophenyl)-N,2-dimethyl-6,7-dihydro-5H-cyclopenta[d]pyrimidin-4-amine]
- fold less potent than 1 in MDA-MB-435 cells (MDA-MB-435 cancer cells): 2.9 fold

Compound: Cc1nc2c(c(N(C)c3ccc(N)cc3)n1)CCC2 [Compound 8, N-(4-Aminophenyl)-N,2-dimethyl-6,7-dihydro-5H-cyclopenta[d]pyrimidin-4-amine]
- antiproliferative activity (in words) (MDA-MB-435 cancer cells): low activity

Compound: Cc1nc2c(c(N(C)c3ccc4c(c3)CCO4)n1)CCC2 [Compound 9, N-(2,3-Dihydrobenzofuran-5-yl)-N,2-dimethyl-6,7-dihydro-5H-cyclopenta[d]pyrimidin-4-amine]
- fold less potent than 1 in MDA-MB-435 cells (MDA-MB-435 cancer cells): 1.7 fold

Compound: COc1ccc(N(C)c2nc(C)nc3c2CCC3)cc1C [Compound 10, N-(3-Methyl-4-methoxylphenyl)-N,2-dimethyl-6,7-dihydro-5H-cyclopenta[d]pyrimidin-4-amine]
- fold less potent than 1 in MDA-MB-435 cells (MDA-MB-435 cancer cells): about 2.6 fold

Compound: COc1ccc(CN(C)c2nc(C)nc3c2CCC3)cc1 [Compound 12, N-(4-Methoxylphenyl)methyl-N,2-dimethyl-6,7-dihydro-5H-cyclopenta[d]pyrimidin-4-ammonium chloride]
- antiproliferative activity (in words) (MDA-MB-435 cancer cells): poor MDA-MB-435 inhibitory activity

Compound: COc1ccc([C@H](C)N(C)c2nc(C)nc3c2CCC3)cc1 [Compound 13, N-[1(1S)-(4-Methoxylphenyl)ethyl]-N,2-dimethyl-6,7-dihydro-5H-yclopenta[d]pyrimidin-4-amine]
- microtubule depolymerization activity (in words) (A-10 cells): devoid of any microtubule depolymerization activity

Compound: COc1ccc([C@@H](C)N(C)c2nc(C)nc3c2CCC3)cc1 [Compound 14, N-[1(1R)-(4-Methoxylphenyl)ethyl]-N,2-dimethyl-6,7-dihydro-5H-cyclopenta[d]pyrimidin-4-amine]
- microtubule depolymerization activity (in words) (A-10 cells): devoid of any microtubule depolymerization activity

- EC50 (A-10 cells; read-out: EC50 in A-10 cells, microtubule depolymerizing activity): > 10000 nM
Compound: N-(4-Methoxycyclohexyl)-N,2-dimethyl-6,7-dihydro-5H-cyclopenta[d]pyrimidin-4-amine [Compound 11]
- microtubule depolymerization activity (in words) (A-10 cells): devoid of any microtubule depolymerization activity
